Data reported in BindingDB's records for doi:10.1021/jm00155a029 (1986).

Assay: Compound was tested for the inhibitory effect against Gamma-amino-N-butyrate transaminase from bacteria

NC/C=C(\CF)C(=O)O [(2Z)-4-ammonio-2-(fluoromethyl)but-2-enoate]
Ki: 9 µM
